ChEMBL document CHEMBL1201862, “PubChem BioAssay data set” (2004)
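Interpolation was linear, between the two tested concentrations surrounding the appropriate level; five concentrations were tested over 48 hours in 96-well plates. Abbreviation: GI50, concentration required for 50% inhibition of growth.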 The source made the active and inactive calls. No stated cut-off is given here; in the data, active = GI50 up to about 1.1 µM and inactive = higher.

Assays:
Assay in all cases: NCI tumour cell line growth inhibition, 48 h
SF-539 = test system: SF-539
SNB-78 = test system: SNB-78
M14 = test system: M14
ACHN = test system: ACHN
Malme-3M = test system: Malme-3M
A549 = test system: A549
DMS-273 = test system: DMS-273
OVCAR-3 = test system: OVCAR-3
A498 = test system: A498
HOP-92 = test system: HOP-92
NCI-H522 = test system: NCI-H522
XF498 = test system: XF498
M19-MEL = test system: M19-MEL
CAKI-1 = test system: CAKI-1
NCI/ADR-RES = test system: NCI/ADR-RES
T47D = test system: T47D
MDA-MB-231 = test system: MDA-MB-231
DU-145 = test system: DU-145
MDA-N = test system: MDA-N
DMS-114 = test system: DMS-114

Measured: GI50

O=C(CC1Sc2ccccc2NC1=O)Nc1ccccc1[N+](=O)[O-] (stereo unspecified)
inactive: SF-539 > 100 µM | SNB-78 > 100 µM | M14 > 100 µM | ACHN > 100 µM | Malme-3M > 100 µM | A549 > 100 µM | DMS-273 > 100 µM | OVCAR-3 > 100 µM | A498 > 100 µM | HOP-92 > 100 µM | NCI-H522 17.1 µM | XF498 > 100 µM | M19-MEL > 100 µM | CAKI-1 > 100 µM

O=C(O)Cc1ccc(N2N=C(c3ccccc3)CC2=O)cc1
inactive: NCI/ADR-RES > 100 µM | T47D > 100 µM | MDA-MB-231 > 100 µM | DU-145 > 100 µM | M14 > 100 µM | ACHN > 100 µM | Malme-3M 18.6 µM | MDA-N > 100 µM | OVCAR-3 > 100 µM | A498 > 100 µM | NCI-H522 > 100 µM | CAKI-1 > 100 µM

O=C1C(Cl)N(c2ccc([N+](=O)[O-])cc2)C1c1c[nH]c2ccccc12 (stereo unspecified)
inactive: SF-539 33 µM | M14 64.7 µM | Malme-3M 42.1 µM | A549 > 100 µM | OVCAR-3 47.8 µM | HOP-92 83 µM | NCI-H522 56.8 µM | DMS-114 38 µM | XF498 > 100 µM | M19-MEL > 100 µM

CCCCSCCC(N)P(=O)(O)O (stereo unspecified)
inactive: NCI/ADR-RES > 100 µM | T47D > 100 µM | MDA-MB-231 > 100 µM | DU-145 > 100 µM | M14 > 100 µM | ACHN > 100 µM | MDA-N > 100 µM | A549 > 100 µM | OVCAR-3 > 100 µM | HOP-92 > 100 µM | NCI-H522 > 100 µM | CAKI-1 > 100 µM

Cc1nc2c(n1C)C(=O)c1nc(CBr)[nH]c(=O)c1C2=O
inactive: SF-539 > 100 µM | M14 35.9 µM | ACHN > 100 µM | A549 > 100 µM | DMS-273 > 100 µM | A498 > 100 µM | HOP-92 > 100 µM | NCI-H522 > 100 µM | DMS-114 75.9 µM | XF498 > 10 µM | M19-MEL > 100 µM

CCc1n[nH]c(=O)n1CC
inactive: NCI/ADR-RES > 100 µM | T47D > 100 µM | SF-539 > 100 µM | MDA-MB-231 > 100 µM | DU-145 > 100 µM | ACHN > 100 µM | Malme-3M > 100 µM | MDA-N > 100 µM | A549 > 100 µM | OVCAR-3 > 100 µM | A498 > 100 µM | HOP-92 > 100 µM | NCI-H522 > 100 µM | CAKI-1 > 100 µM

Cc1ccc(N2Cc3c(ccc4ccccc34)OP2(=S)N2CCCC2)cc1 (stereo unspecified)
inactive: NCI/ADR-RES > 100 µM | SF-539 > 100 µM | SNB-78 > 100 µM | Malme-3M > 100 µM | A549 > 100 µM | DMS-273 > 100 µM | OVCAR-3 > 40.1 µM | A498 > 56.5 µM | HOP-92 > 100 µM | NCI-H522 > 100 µM | XF498 > 100 µM | M19-MEL > 100 µM | CAKI-1 > 100 µM

COc1cccc(CC2Cc3ccccc3CC(=O)N2)c1 (stereo unspecified)
inactive: NCI/ADR-RES 20 µM | T47D 41.5 µM | SF-539 88.5 µM | MDA-MB-231 10 µM | DU-145 > 100 µM | M14 14 µM | ACHN 76.2 µM | MDA-N 48.1 µM | A549 34.1 µM | OVCAR-3 20.4 µM | HOP-92 24.1 µM | CAKI-1 16.6 µM

O=NN(CC1(O)OCC(O)C(O)C1O)C(Cc1c[nH]c2ccccc12)C(=O)O (stereo unspecified)
inactive: SF-539 > 100 µM | SNB-78 > 100 µM | M14 > 100 µM | ACHN > 100 µM | Malme-3M > 100 µM | A549 > 100 µM | DMS-273 > 100 µM | OVCAR-3 > 100 µM | A498 > 100 µM | HOP-92 > 100 µM | NCI-H522 > 100 µM | DMS-114 > 100 µM | XF498 > 100 µM | M19-MEL > 100 µM

c1ccc(C2=NNC3c4ccccc4-c4ccccc4N3C2)cc1 (stereo unspecified)
inactive: NCI/ADR-RES 31.8 µM | T47D 23.5 µM | SF-539 22.4 µM | MDA-MB-231 26 µM | DU-145 40.5 µM | M14 29.2 µM | ACHN 31.8 µM | Malme-3M 30.3 µM | MDA-N 33.5 µM | A549 32.7 µM | OVCAR-3 37.5 µM | A498 30 µM | HOP-92 52.5 µM | NCI-H522 26.1 µM | CAKI-1 43 µM

COc1cccc(NC(=O)CC(=O)NN2C(=O)/C(=C/c3ccc(N(CCC#N)CCC#N)cc3)N=C2c2cc([N+](=O)[O-])ccc2Cl)c1
inactive: SF-539 > 100 µM | SNB-78 > 100 µM | M14 > 100 µM | ACHN > 100 µM | Malme-3M 32.7 µM | A549 > 100 µM | DMS-273 > 100 µM | OVCAR-3 > 100 µM | HOP-92 > 100 µM | NCI-H522 43.9 µM | DMS-114 31 µM | XF498 57.7 µM | M19-MEL > 100 µM | CAKI-1 > 100 µM

CC(=O)Oc1ccccc1[C@H]1CC(=O)C[C@H](c2ccccc2OC(C)=O)C12C(=O)c1ccccc1C2=O
inactive: NCI/ADR-RES 29.2 µM | T47D 40.2 µM | MDA-MB-231 27.1 µM | DU-145 35.4 µM | M14 19.9 µM | Malme-3M 40 µM | MDA-N 16 µM | OVCAR-3 22.1 µM | A498 25.6 µM | HOP-92 47.9 µM | NCI-H522 26.7 µM | CAKI-1 20.9 µM

COc1ccc(CCn2nccc2C)cc1
inactive: NCI/ADR-RES > 100 µM | T47D 74.1 µM | SF-539 > 100 µM | MDA-MB-231 > 100 µM | DU-145 > 100 µM | M14 > 100 µM | ACHN > 100 µM | Malme-3M > 100 µM | MDA-N > 100 µM | A549 > 100 µM | OVCAR-3 > 100 µM | CAKI-1 > 100 µM

COc1ccccc1NC(=O)C(=O)C(C(=O)c1ccccc1F)C1OC(=O)c2ccccc21 (stereo unspecified)
inactive: SF-539 20.8 µM | SNB-78 25.5 µM | M14 27.5 µM | ACHN 39.4 µM | A549 45.3 µM | DMS-273 23.9 µM | A498 59.8 µM | HOP-92 42.6 µM | NCI-H522 16.9 µM | DMS-114 23.1 µM | XF498 14.1 µM | M19-MEL 15.8 µM | CAKI-1 34.5 µM

COc1cccc(-c2c(C#N)c(N)nc3c2CCS(=O)(=O)c2ccc(C)cc2-3)c1
inactive: NCI/ADR-RES > 100 µM | T47D > 100 µM | MDA-MB-231 > 100 µM | DU-145 > 100 µM | M14 > 100 µM | ACHN > 100 µM | Malme-3M 68.1 µM | MDA-N > 100 µM | A549 > 100 µM | OVCAR-3 > 100 µM | A498 > 100 µM | HOP-92 > 100 µM | NCI-H522 > 100 µM | CAKI-1 > 100 µM

COc1cccc(CCn2c(N)c(-c3cc(Cl)cc(Cl)c3)c3ccc([N+](=O)[O-])cc3c2=O)c1
inactive: NCI/ADR-RES 3.27 µM | T47D 2.78 µM | SF-539 77.3 µM | MDA-MB-231 4.68 µM | DU-145 2.7 µM | M14 3.95 µM | ACHN 3.26 µM | Malme-3M 2.83 µM | MDA-N 4.53 µM | A549 4.76 µM | OVCAR-3 3.13 µM | A498 3.56 µM | HOP-92 2.85 µM | NCI-H522 2.92 µM | CAKI-1 3.5 µM

CC1(Cl)CC2C(CC1Sc1nnnn1-c1ccccc1)C2(C)C (stereo unspecified)
inactive: SF-539 > 100 µM | SNB-78 92.7 µM | M14 > 100 µM | ACHN 75.5 µM | A549 67.1 µM | DMS-273 71.9 µM | OVCAR-3 38.7 µM | HOP-92 58.6 µM | DMS-114 45.9 µM | M19-MEL > 100 µM

Cc1ccc(SSCCCCCS(=O)O)cc1
inactive: SF-539 16.2 µM | SNB-78 25.4 µM | M14 40.4 µM | ACHN 57.7 µM | Malme-3M 18.3 µM | OVCAR-3 22.2 µM | A498 19 µM | NCI-H522 14.6 µM | DMS-114 21 µM | XF498 18.6 µM | M19-MEL 37.6 µM

COC(=O)C1=C(C)C(=O)[C@H]2C(C(=O)OC)CCCC[C@@H]12 (stereo partly specified)
inactive: SF-539 > 100 µM | SNB-78 > 100 µM | M14 > 100 µM | ACHN > 100 µM | Malme-3M > 100 µM | A549 > 100 µM | DMS-273 90.2 µM | A498 > 100 µM | HOP-92 32.3 µM | NCI-H522 29.4 µM | DMS-114 20.9 µM | XF498 89.9 µM | M19-MEL > 100 µM | CAKI-1 > 100 µM

COc1c(O)c(C=O)c2c(O)c(-c3c(C)cc4c(C(C)C)c(OC)c(O)c(C=O)c4c3O)c(C)cc2c1C(C)C [6,6'-METHOXYGOSSYPOL]
inactive: SF-539 4.36 µM | SNB-78 25.3 µM | M14 9.86 µM | ACHN 2.43 µM | Malme-3M 5.75 µM | A549 3.52 µM | DMS-273 5.11 µM | OVCAR-3 3.37 µM | A498 11.4 µM | HOP-92 2.2 µM | NCI-H522 2.62 µM | DMS-114 3.08 µM | M19-MEL 3.65 µM | CAKI-1 6.08 µM
